US20250361241A1, “HPK1 INHIBITOR AND MEDICAL USE THEREOF” (Betta Pharmaceuticals Co., Ltd., priority 2022, published 2025)
pIC50: −log10 of the molar value.

Key:
[1] = molecular target: T1, HPK1 (Homo sapiens (Human), UniProt Q92918); assay: HPK1 enzyme activity detection (1 mM ATP system), ADP-Glo, Pharmacological Experiment 1; format: biochemical
Protocol: Pharmacological Experiment 1: HPK1 Enzyme Activity Detection (1 mM ATP System)
• (1) Take ADP-GloTMKinase Assay Kit (Promega, Cat. No. V9102) to prepare 4× kinase buffer. • (2) Compound gradient dilution: The compound to be tested is diluted 3-fold, and 11 gradient concentrations are set, and each concentration is set for duplicate well detection. Serial dilutions were made in a 384-well plate to the corresponding 100×final concentration solution, and then 0.1 μL was transferred to the 384-well reaction plate for testing using Echo. Transfer 0.1 μL of 100% DMSO to the smallest and largest wells. • (3) Prepare HPK1 enzyme working solution using 4× kinase buffer. • (4) Add 5 μL of HPK1 enzyme working solution to each well and 5 μL of 1× kinase buffer to the smallest well. Centrifuge at 1000 rpm for 1 min and incubate at 25° C. for 15 min. • (5) During the incubation period, prepare the substrate working solution using 4× kinase buffer. • (6) Add 5 μL of substrate working solution containing 1 mM ATP to each well of the reaction plate, centrifuge at 1000 rpm for 1 min, and incubate at 25° C. for 60 min. • (7) At the end of incubation, add 5 μL of ADP Glo reagent to each well. Centrifuge at 1000 rpm for 1 min and incubate at 25° C. for 60 min. • (8) Add 10 μL of detection solution to each well, centrifuge at 1000 rpm for 1 min, and incubate at 25° C. for 60 min. • (9) Read using EnVision.
Inhibition rate calculation formula:
[formula] • Vehicle: Reading value of DMSO control well • Blank: No enzyme well reading • Largest well: Reading value of DMSO control well • Minimum well: No enzyme well reading
The log value of the concentration was used as the X-axis and the percentage inhibition rate was used as the Y-axis. The “log (inhibitor) vs. response—variable slope” of the analysis software GraphPad Prism 5 was used to fit the dose-effect curve to obtain the IC 50 value of the compound's inhibition of kinase binding.
See Table 1 for the enzymatic IC 50 data of the example compounds on HPK1.

[2] = molecular target: T1, HPK1; assay: HPK1 enzyme activity detection (1 mM ATP system), ADP-Glo with MBP substrate, Pharmacological Experiment 2; format: biochemical
Summary of the method: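 Compound in DMSO preincubated with HPK1 for 15 min at 25 °C, then reaction started with ATP (1 mM system) and MBP substrate for 60 min at 25 °C. ADP formed quantified by ADP-Glo luminescence; IC50 derived from percentage inhibition.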

[3] = molecular target: GLK (Homo sapiens (Human), UniProt Q8IVH8); assay: GLK kinase assay (1 mM ATP system), ADP-Glo; format: biochemical
Summary of the method: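 GLK kinase reaction with 1 mM ATP and MBP substrate ran 60 min at 25 °C after 15 min preincubation of enzyme with compound. ADP formed was detected by ADP-Glo luminescence; percent inhibition used to derive IC50.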

[4] = test system: human peripheral blood mononuclear cells; assay: Detection of IFN-γ secretion in human peripheral blood mononuclear cells (anti-CD3/CD28 beads, ELISA); format: cell-based; settings: for Maximum induction factor: IFN-γ secretion, human PBMC; for EC3x: concentration for IFN-γ secretion of human PBMC to reach 3 times the baseline, 3 days
Protocol: Pharmacological Experiment 4: Detection of IFN-γ Secretion in Human Peripheral Blood Monocytes
• (1) Take human peripheral blood mononuclear cells frozen in liquid nitrogen, thaw in a 37° C. water bath, add 5 mL of preheated RPMI-1640 complete medium (containing 10% fetal bovine serum and penicillin/streptomycin), centrifuge at 500 g for 10 minutes, and discard the supernatant; • (2) Resuspend the cells in RPMI-1640 complete medium, adjust the density to 5×10^6 cells/mL, inoculate in a low-adhesion 6-well plate (Corning, 3471), and culture at 37° C. for 2 days; • (3) Collect cultured human peripheral blood mononuclear cells, centrifuge at 500 g for 10 min, and discard the supernatant; • (4) Resuspend the cells in RPMI-1640 complete medium, adjust the density to 1×10^6 cells/mL, and inoculate them in a round-bottom 96-well plate (Jet Biofil, TCP-002-096), with 100 μL per well; • (5) Add 50 μL of the test compound to each well and incubate at 37° C. for 30 min; • (6) Take human anti-CD3/CD28 magnetic beads (Miltenyi, 130-091-441), wash once with RPMI-1640 complete medium, and adjust the density to 0.5×106 beads/mL for later use; • (7) After the compound incubation, 50 μL of anti-human CD3/CD28 magnetic beads were added to each well and cultured at 37° C. for 3 days, • (8) The cell culture supernatant was obtained and the IFN-γ secretion was detected using the Human IFN-gamma DuoSet ELISA kit (R&D, DY285B-05); • (9) The log value of concentration was used as the X-axis and the IFN-γ secretion amount was used as the Y-axis. The “log (agonist) vs. response−variable slope” equation of the analysis software GraphPad Prism 7 was used to fit the dose-effect curve, thereby obtaining the EC3x value and the maximum induction factor of the compound for the secretion of IFN-γ from human peripheral blood mononuclear cells to reach 3 times the baseline.

[5] = test system: Jurkat cells; assay: Jurkat IL-2 secretion detection (anti-CD3/CD28 beads, ELISA); format: cell-based, human; settings: for Maximum induction factor: IL-2 secretion, Jurkat cells; for EC3x: concentration for IL-2 secretion of Jurkat cells to reach 3 times the baseline, 20 h
Protocol: Pharmacological Experiment 5: Jurkat IL-2 Secretion Detection
• (1) Take the cultured Jurkat cells, adjust the density to 1×10^6 cells/mL, and inoculate them in a flat-bottom […] plate (Jet Biofil, TCP011096), with 100 μL per well, • (2) Add 50 μL of the test compound to each well and incubate at 37° C. for 30 min; • (3) Take human anti-CD3/CD28 magnetic beads (Miltenyi, 130-091-441), wash once with RPMI-1640 complete medium, and adjust the density to 4×106 beads/mL for later use; • (4) After the compound incubation, 50 μL of anti-human CD3/CD28 magnetic beads were added to each well and cultured at 37° C. for 20 h, • (5) The cell culture supernatant was obtained and the IL-2 secretion was detected using the Human IL-2 DuoSet ELISA kit (R&D, DY008); • (6) The log value of the concentration was used as the X-axis and the IL-2 secretion was used as the Y-axis. The “log (agonist) vs. response-variable slope” equation of the analysis software GraphPad Prism 7 was used to fit the dose-effect curve, thereby obtaining the […] and the […]

[6] = PK study of compound in dogs; format: in vivo; settings: Beagle dog
Protocol: Pharmacological Experiment 6: PK Study of Compound in Dogs The compound was mixed with a solvent of saline or 10% DMSO/5% Solutol/85% saline or 10% DMSO/10% Solutol/80% saline (specific solvents are shown in the table below), vortexed and sonicated to prepare a clear oral solution. […] The drug concentration was analyzed by LC-MS/MS method, and the pharmacokinetic parameters were calculated using Phoenix WinNolin software (Pharsight, USA).

[7] = PK study of compound in monkeys; format: in vivo; settings: crab-eating monkey; for IV Plasma Cl_obs: IV 1 mg/kg
Protocol: Pharmacological Experiment 7: PK Study of Compound in Monkeys
The drug concentration was analyzed by LC-MS/MS method, and the pharmacokinetic parameters were calculated using Phoenix WinNolin software (Pharsight, USA).

[8] = test system: mouse colon cancer cell CT26; assay: Efficacy in CT26 CDX model mice (subcutaneous homologous transplant tumor); format: in vivo, Balb/c mouse; settings: after 21 days
Protocol: Pharmacological Experiment 8; Study on the Efficacy of the Compound in CT26CDX Model Mice […] The first group (G1) was a vehicle control group (10% propylene glycol/5% HS15/85% glucose). The second group (G2) was the control compound D1-administered group. […] Note: PO stands for oral gavage, QD stands for once daily dosing, and BID stands for twice daily dosing. Tumor size and mouse body weight were measured twice a week during the experiment, and the weight of the animals on that day was used as a reference for each drug administration. The tumor size was measured by using a vernier caliper to measure the length (a) and width (b) of the tumor. The tumor volume (TV) was calculated using the following formula: TV=a*b2/2 After 21 days of administration, the tumor growth inhibition rate (TGI) of each administration group is shown in Table 10.

[9] = PO 5 mg/kg, DMSO/Solutol/saline
[10] = column beside IV plasma Cl_obs (IV 1 mg/kg)

T1 sequence (Q92918 whole entry, species assumed): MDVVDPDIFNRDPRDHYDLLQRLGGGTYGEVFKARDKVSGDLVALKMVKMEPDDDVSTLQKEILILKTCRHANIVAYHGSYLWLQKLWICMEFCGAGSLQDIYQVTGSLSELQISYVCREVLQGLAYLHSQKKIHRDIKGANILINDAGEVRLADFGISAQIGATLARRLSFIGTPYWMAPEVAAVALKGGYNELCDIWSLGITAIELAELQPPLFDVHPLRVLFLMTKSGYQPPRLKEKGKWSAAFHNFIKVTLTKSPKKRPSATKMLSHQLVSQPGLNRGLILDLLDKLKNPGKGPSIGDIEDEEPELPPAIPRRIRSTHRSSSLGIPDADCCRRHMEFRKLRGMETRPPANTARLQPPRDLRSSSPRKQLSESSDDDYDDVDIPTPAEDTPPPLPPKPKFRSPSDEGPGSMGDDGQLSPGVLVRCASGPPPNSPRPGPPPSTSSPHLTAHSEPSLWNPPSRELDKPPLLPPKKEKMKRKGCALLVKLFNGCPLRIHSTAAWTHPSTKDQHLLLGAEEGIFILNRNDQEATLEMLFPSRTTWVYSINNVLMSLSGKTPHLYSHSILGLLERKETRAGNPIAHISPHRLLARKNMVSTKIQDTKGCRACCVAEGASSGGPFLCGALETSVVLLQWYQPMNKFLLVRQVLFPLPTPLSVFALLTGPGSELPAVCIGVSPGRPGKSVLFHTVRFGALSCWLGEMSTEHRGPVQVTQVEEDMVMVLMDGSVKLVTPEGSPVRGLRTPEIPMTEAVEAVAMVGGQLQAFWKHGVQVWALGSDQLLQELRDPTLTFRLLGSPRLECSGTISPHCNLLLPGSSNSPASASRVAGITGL
Chain of GLK (Q8IVH8 whole entry, species assumed): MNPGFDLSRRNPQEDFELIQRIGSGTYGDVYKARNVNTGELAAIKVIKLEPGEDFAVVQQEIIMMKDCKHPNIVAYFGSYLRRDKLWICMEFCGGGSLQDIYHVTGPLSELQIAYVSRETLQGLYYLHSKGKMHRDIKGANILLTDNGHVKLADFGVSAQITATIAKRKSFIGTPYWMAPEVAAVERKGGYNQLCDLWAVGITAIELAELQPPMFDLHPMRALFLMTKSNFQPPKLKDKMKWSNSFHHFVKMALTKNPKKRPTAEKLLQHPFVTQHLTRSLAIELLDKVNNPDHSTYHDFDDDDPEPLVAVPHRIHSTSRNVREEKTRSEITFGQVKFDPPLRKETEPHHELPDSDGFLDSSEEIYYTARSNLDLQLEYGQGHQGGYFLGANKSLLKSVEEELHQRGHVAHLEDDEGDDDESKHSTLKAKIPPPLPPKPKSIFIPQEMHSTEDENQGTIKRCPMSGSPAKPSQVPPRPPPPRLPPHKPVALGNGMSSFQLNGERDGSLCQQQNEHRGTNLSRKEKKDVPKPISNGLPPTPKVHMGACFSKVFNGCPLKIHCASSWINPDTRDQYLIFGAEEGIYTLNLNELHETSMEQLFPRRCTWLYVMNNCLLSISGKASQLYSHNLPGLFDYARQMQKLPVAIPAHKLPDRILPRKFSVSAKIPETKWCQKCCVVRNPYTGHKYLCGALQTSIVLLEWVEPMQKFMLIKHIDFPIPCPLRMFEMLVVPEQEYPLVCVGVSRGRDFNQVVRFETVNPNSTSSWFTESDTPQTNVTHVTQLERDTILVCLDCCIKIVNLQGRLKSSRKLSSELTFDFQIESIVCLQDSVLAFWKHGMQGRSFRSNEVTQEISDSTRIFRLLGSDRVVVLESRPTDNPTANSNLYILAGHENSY

Row | SMILES | pIC50 [2] | pIC50 [3] | Maximum induction factor [4] | EC3x [4] [nM] | Maximum induction factor [5] | EC3x [5] [nM] | IV Plasma Cl_obs [7] [mL/min/kg] | TGI ([8]; 75 mg/kg PO QD) [%] | also measured
1 | CN(C)C1CC2(CCOCC2)c2ccc(Nc3ccc(-c4cnc5cc(F)ccn45)c4c3C(=O)NC4)nc21 (stereo not shown) [Compound 2, 7-(7-(DIMETHYLAMINO)-2′,3′,5′,6,6′,7-HEXAHYDROSPIRO[CYCLOPENTYL]PYRIDINE-5,4′-PYRAN]-2-YL)AMINO)-4 (7-FLUOROIMIDAZOLE[1,2-A]PYRIDIN-3-YL)ISOINDOL-1-ONE] | 7.95 | 5.93 | 5.9 | 69 | 10 | 345 | – | – | pIC50 [1]: 8.15
2 | CN(C)[C@@H]1CC2(CCOCC2)c2ccc(Nc3ccc(-c4cnc5cc(F)ccn45)c4c3C(=O)NC4)nc21 [Compound 2B, (R)-7-((7-(DIMETHYLAMINO)-2′,3′,5′,6,6′,7-HEXAHYDROSPIRO[CYCLOPENTADIENYL[B]PYRIDINE-54′-PYRAN]-2-YL)AMINO)-4-(7-FLUOROIMIDAZO[1,2-A]PYRIDIN-3-YL)ISOINDOLIN-1-ONE] | 8.99 | 6.33 | 7.7 | 22 | 10.9 | 90.7 | 6.16 | 70 | Bioavailability F % [6, 9]: 48.4%; PO Plasma AUC [6, 9]: 1082 ng·h/mL; T1/2 [6, 9]: 1.65 h; Bioavailability F % ([7]; IV 1 mg/kg and PO 5 mg/kg): 50.2%; PO Plasma AUC ([7]; PO 5 mg/kg): 6302 ng·h/mL; T1/2 [7, 10]: 8.81 h; TGI ([8]; 25 mg/kg PO QD): 59%; TGI ([8]; 75 mg/kg PO BID): 90%
3 | CN(C)Cc1nc(Nc2ccc(-c3cnc4cc(F)ccn34)c3c2C(=O)NC3)ccc1C1CCOCC1 [Compound D1, reference compound] | – | – | 4.6 | 528 | 8.1 | 544 | 17.6 | 38 | AUC ([6]; plasma, PO 10 mg/kg, saline): 396 ng·h/mL; half-life ([6]; plasma, PO 10 mg/kg, saline): 3.19 h; bioavailability ([6]; plasma, PO 10 mg/kg, saline, read-out: Bioavailability F %): 11.6%; half-life [7, 10]: 4.01 h; AUC ([7]; plasma, PO 5 mg/kg): 1720 ng·h/mL
